“Also recorded” adds a separate entry of the source. Starred links: 1 amine or outer side, 2 acyl side, 3 side chain; linkers in the order of their positions; H or OH if unused. Positions of bridges follow the written chain, without caps; N, C: chain ends. Non-standard residues stand in square brackets, D forms with d. Residues, ends and D or L forms follow the SMILES beside them. No end group written: not given here. X1 = O=C([C@@H]1CSC(c2ncc(N[*:1])cn2)=N1)[*:2]; Abu = CC[C@H](N)C(=O)O

One assay has as its system CA5C-sfGFP. As to the kind of experiment: Cyclization of CA5C-sfGFP with linkers (LC-ESI-MS). Conditions: 100 μM linker, 3 h, 22 °C (RT), PBS pH 7.4, 1 mM TCEP. As for the experimental part: The designed organic linkers were tested for their ability to cyclize a CA5C peptide expressed as an N-terminal fusion to sfGFP (CA5C-sfGFP). Following reduction of the protein with 1 mM TCEP for 30 min, 100 μM compounds were reacted with the reduced CA5C-sfGFP for 3 h in PBS (pH 7.4). Following the reaction, the protein was analyzed via electrospray ionization mass spectrometry (ESI-MS) analysis to determine the desired adduct and any potential side reactions that occurred. […] This is likely due to the electron withdrawing effects of the nitrogen atoms adjacent to the nitrile in the 2-cyanopyrimidine derivatives. […] Following previously established Bayesian deconvolution of the mass spectra,[23] protein masses from each reaction (MW = 28,399 Da) corresponded well with that of the expected cyclic product (MW = 28,399 Da). […] This observed mass matches a TCEP-conjugated product resulting from a previously reported competing phospha-Michael addition of TCEP to the acrylamide moiety.[24] This product has a TCEP-functionalized linker that is nonreactive toward the internal cysteine (Figure 2A,B). Following these initial studies, we then further optimized the cyclization of CA5C-sfGFP using pCAmCP and mCAmCP by varying the reaction time, temperature, and concentration of linkers (Figure 2C).
Purified CA5C-sfGFP was diluted to 500 nM in PBS (pH 7.4) containing 1 mM TCEP and left to incubate for 30 min at 37 °C. Linker (100 μM final concentration) or equivalent amounts of DMSO were then added to the solution, and it reacted at varying times (3 or 16 h) and temperatures (22 or 37 °C). All initial tests for reactivity were performed at 22 °C for 3 h, while linkers pCAmCP and mCAmCP were optimized with the additional conditions. The reaction mixtures were then concentrated and exchanged to ammonium bicarbonate (50 mM, pH 8.0) using an Amicon centrifugal filter (MWCO: 10 kDa). Samples were analyzed using a QExactive Orbitrap LC–MS System (Thermo Fisher) and deconvoluted using UniDec software.[23]

The target of assay [1] is T1, ZNRF3 extracellular domain (ZNRF3-ECD) (Homo sapiens, UniProt Q9ULT6).
T1 construct: The ZNRF3 ECD was expressed and characterized exactly as previously described; SUMO (N, cleaved yes); made in house; host or cells: E. coli BL21, co-expressing BirA
T1 sequence (Q9ULT6 56-219 limits assumed): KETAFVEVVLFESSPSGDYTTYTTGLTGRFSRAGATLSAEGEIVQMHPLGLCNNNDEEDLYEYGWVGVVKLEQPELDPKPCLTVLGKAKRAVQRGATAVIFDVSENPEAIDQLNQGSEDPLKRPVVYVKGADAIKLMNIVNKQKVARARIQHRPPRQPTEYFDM
As to the kind of experiment: Biolayer interferometry (BLI) binding to immobilized biotinylated ZNRF3-ECD. The note with it: for Kd: streptavidin biosensors. On the procedure: The ZNRF3 ECD was expressed and characterized exactly as previously described.[38] Plasmid pET28a-SUMO-ZNRF3-Avi was cotransformed into E. coli (BL21) along with a plasmid expressing BirA. The cells were then inoculated into 2× YT containing 50 μg/mL kanamycin and 34 μg/mL chloramphenicol and grown at 37 °C until OD = 0.5. Expression was then induced by the addition of 1 mM IPTG and 50 μM biotin, and then the protein was expressed for 18 h at 16 °C. The cells were then pelleted (3750g, 15 min) and then resuspended in buffer A (50 mM Tris-HCl, 10% glycerol, 150 mM NaCl, and 25 mM imidazole, pH 7.5, 20 mL/liter of expression). The cells were then lysed by sonication (1 s on, 1 s off, 5 min, 60% A, repeated once), and the lysate was clarified by centrifugation (25,000g, 20 min). The supernatant was then incubated with a Ni-NTA column for 45 min at 4 °C. The column was then washed with 5 CV of buffer A before being eluted using 2 CV of buffer B (buffer A + 240 mM imidazole). The elution was then concentrated using an Amicon centrifugal filter before being desalted into buffer A on a HiPrep 26/10 column. The SUMO tag was then cleaved by the addition of 30 μg/mL SUMO protease and incubation for 48 h at 4 °C. The protein was then loaded onto a second Ni-NTA column for 45 min at 4 °C, and the flowthrough was collected and concentrated to 1 mL by centrifugation. Pure protein was then isolated using size exclusion chromatography (HiLoad 16/600, Superdex 75 pg) in buffer C (50 mM Tris-HCl, pH 7.5, 10% (v/v) glycerol, 150 mM NaCl, and 0.5 mM EDTA). Pure protein was stored in storage buffer (50 mM Tris-HCl, pH 7.5, 50% (v/v) glycerol, and 150 mM NaCl) at −80 °C before being used for assays.
Biolayer interferometry (BLI) experiments were performed using streptavidin-coated biosensors (Sartorius Bio) on an Octet R8 biolayer interferometer (Sartorius Bio). All experiments were performed in assay buffer (10 mM HEPES, 150 mM NaCl, and 0.01% Tween 20, pH 7.5). Biotinylated ZNRF3 (28 μg/mL in assay buffer) was loaded onto the sensor to 4 nm of loading over 10 min, and then the sensors were quenched for one min with a 1% BSA solution in assay buffer. Peptides were serially diluted in assay buffer containing 0.8% DMF, and the association and dissociation to ZNRF3 were measured over 3 and 5 min, respectively. Between each experiment, sensors were regenerated using 10 mM glycine, pH 1.5. Binding curves were double-referenced against a protein-only sensor and a parallel unloaded sensor to correct for any nonspecific binding to the sensors. All curves were fit in the Octet Kinetic Analysis program (Sartorius Bio) using a 1:1 protein/ligand binding model.

The target of assay [2] is T1, ZNRF3 extracellular domain (ZNRF3-ECD). As to the kind of experiment: Phage selection against ZNRF3-ECD, NGS enrichment, pCAmCP-cyclized library. It is filed as binding. The source says: In addition to simply ensuring the cyclization potential on phage, we also looked to investigate the selection differences using two different linkers to macrocyclize the same initial peptide library. ZNRF3 is a membrane protein that contains an intracellular E3 ligase domain and has previously shown potential in promoting degradation of oncogenic membrane proteins, such as PDL1.[32] ZNRF3 also plays a major role in the regulation of the Wnt signaling cascade, which can modulate a variety of cell processes related to oncogenesis and cell differentiation.[33]−[36] […] Because it has an extracellular domain that can be easily accessible to macrocyclic peptides, we envisioned that a selection against the extracellular domain for ZNRF3 (ZNRF3-ECD) would afford peptides that could potentially be used in the development of proteolysis-targeting chimeras (PROTACs) for a variety of membrane proteins. We expressed and characterized a biotinylated ZNRF3-ECD using an Avi-Tag on the […] to facilitate the selection using streptavidin magnetic beads, as has been previously described (Figure S20).[38] […] To avoid the potential for enriching peptides that bind to the streptavidin resin, we alternated loading the protein using streptavidin and NHS-functionalized magnetic beads for the first three rounds of selection (Figure 5).
The purified phage library (10^11 to 10^12 cfu) in binding buffer was incubated with 1 mM TCEP at 37 °C. After 30 min, the linker (pCAmCP or mCAmCP, 10 mM in DMSO) was added to a final concentration of 100 μM. The solution was incubated for 24 h at RT with slow rotation. The library was then directly used for affinity selection without further purification.
Streptavidin-coated magnetic beads (100 μL, 50% slurry, Cytiva Sera-Mag) were transferred to a 1.5 mL tube, washed three times with 1 mL of binding buffer (10 mM HEPES, 150 mM NaCl, 10 mM MgCl2, and 1 mM KCl, pH 7.4), resuspended in 100 μL of binding buffer, and split into two tubes. […]

Setting [3] is: 10 mM HEPES, 150 mM NaCl, 0.01% Tween 20, pH 7.5, 0.8% DMF.
The mark [4] stands for this setting: 10 mM HEPES, 150 mM NaCl, 0.01% Tween 20, pH 7.5, 0.8% DMF, 1:1 binding model, mean ± s.d., n = 3.

In the case of `C=CC(=O)Nc1cnc(C#N)nc1` [pAcCP], in the assay on CA5C-sfGFP, the “reactivity with / cyclization of CA5C-sfGFP (in words)” value (from here on “reactivity with / cyclization”) was “did not result in the expected CA5C-sfGFP cyclization”. On to “CHLSPLEAWRQKLC (also: sidechain bridge or staple (positions not given here)) [Peptide Z27S1-mCP, Z27S1 cyclized with mCAmCP]”, for which, in assay [1] (setting [3]), the “binding to ZNRF3 (in words)” value is “No significant dose-dependent interactions were observed; also recorded: no significant binding to ZNRF3”. As to `CC(C)C[C@@H]1NC(=O)[C@H](CCCCN)NC(=O)[C@H](CCC(N)=O)NC(=O)[C@H](CCCNC(=N)N)NC(=O)[C@H](Cc2c[nH]c3ccccc23)NC(=O)[C@H](C)NC(=O)[C@H](CCC(=O)O)NC(=O)[C@H](CC(C)C)NC(=O)[C@@H]2CCCN2C(=O)[C@H](CO)NC(=O)[C@H](CC(C)C)NC(=O)[C@H](Cc2c[nH]cn2)NC(=O)[C@@H]2CSC(=N2)c2ncc(cn2)NC(=O)CSC[C@@H](C(N)=O)NC1=O` [Peptide Z27S1] ({CH2CO}-[X1]HLSPLEAWRQKLC-NH2; thioether N-14), the “fold increase in abundance after round 2” value in assay [2] (enrichment after round 2) is on record as > 16,000 -fold. Besides, the “presence in round 1 sequencing data (in words)” value in assay [2] (round 1) is reported as “not found in the round 1 sequencing data”. Besides, the “share of total sequences in round 4” value in assay [2] (round 4, 69,462 total sequences) was found to be 67%. Besides, the “binding to ZNRF3 (in words)” value in assay [1] (setting [3]) is recorded as “nanomolar affinity to ZNRF3”. Binding in assay [1] (pH 7.5, 1:1 binding model, value as given in abstract) was characterised by a dissociation constant (Kd) of 0.36 µM. `CC[C@H](C)[C@@H]1NC(=O)[C@H](Cc2ccccc2)NC(=O)[C@H](CCC(N)=O)NC(=O)[C@H](C)NC(=O)[C@H](C)NC(=O)[C@H](CC(N)=O)NC(=O)[C@@H]2CCCN2C(=O)[C@@H]2CSC(=N2)c2ncc(cn2)NC(=O)CSC[C@@H](C(N)=O)NC(=O)[C@H](C)NC(=O)[C@H](CCCNC(=N)N)NC(=O)[C@H](CO)NC(=O)[C@H](Cc2ccc(O)cc2)NC(=O)[C@H](CCCNC(=N)N)NC1=O` [Peptide Z27S3] ({CH2CO}-[X1]PNAAQFIRYSRAC-NH2; thioether N-14) came in with a Kd in assay [1] (setting [4]) of 3.5 ± 0.3 µM. Take `C=CC(=O)Nc1ccnc(C#N)n1` [mAcCP]: the “reactivity with / cyclization” value in the assay with CA5C-sfGFP is “did not result in the expected CA5C-sfGFP cyclization”. Take `CC(C)C[C@@H]1NC(=O)[C@H](CCCCN)NC(=O)[C@H](CCC(N)=O)NC(=O)[C@H](CCCNC(=N)N)NC(=O)[C@H](Cc2c[nH]c3ccccc23)NC(=O)[C@H](C)NC(=O)[C@H](CCC(=O)O)NC(=O)[C@H](CC(C)C)NC(=O)[C@@H]2CCCN2C(=O)[C@H](CO)NC(=O)[C@H](CC(C)C)NC(=O)[C@H](Cc2c[nH]cn2)NC(=O)[C@@H](N)CSSC[C@@H](C(N)=O)NC1=O` [Peptide Z27S1Disulf] (H-CHLSPLEAWRQKLC-NH2; disulfide 1-14): binding in assay [1] (setting [4]) was put at a Kd of 3 ± 2 µM. Same read-out and setting: next, `CC[C@H](C)[C@@H]1NC(=O)[C@H](Cc2ccccc2)NC(=O)[C@H](CCC(N)=O)NC(=O)[C@H](C)NC(=O)[C@H](C)NC(=O)[C@H](CC(N)=O)NC(=O)[C@@H]2CCCN2C(=O)[C@@H](N)CSSC[C@@H](C(N)=O)NC(=O)[C@H](C)NC(=O)[C@H](CCCNC(=N)N)NC(=O)[C@H](CO)NC(=O)[C@H](Cc2ccc(O)cc2)NC(=O)[C@H](CCCNC(=N)N)NC1=O` [Peptide Z27S3Disulf] (H-CPNAAQFIRYSRAC-NH2; disulfide 1-14): 4 ± 1 µM. On to “[Abu]PNAAQFIRYSRA[Abu] [Peptide Z27S3Abu, Abu derivative of Z27S3]”, for which the “binding to ZNRF3 (in words)” value in assay [1] (setting [3]) was “no binding to ZNRF3”. Regarding `C=CC(=O)Nc1cnc(C#N)cn1` [pAcCPy], the “reactivity with / cyclization” value in the assay on CA5C-sfGFP is listed as “essentially no reactivity with the protein”.

The record behind these values is paper PMC11744668, “2-Cyanopyrimidine-Containing Molecules for N-Terminal Selective Cyclization of Phage-Displayed Peptides” (ACS Chemical Biology, 2025).
